Our source for the IC50 values is patent US20240228535A1 (priority 2022, published 2024).

This assay concerns the target SARS2 coronavirus 3CL protease (Severe acute respiratory syndrome coronavirus 2, UniProt P0DTD1). The experiment in a line: biochemical. Conditions: 5 nM enzyme, 30 min pre-incubation with compound, 15 μM peptide substrate, 4 h at room temperature; read-out: FRET Potency (nM); IC50 values in the SARS2 3CLPro FRET assay.
For `C[C@@H]1C[C@@H](C[C@H](NC(=O)c2cc(C(F)(F)F)ccc2NC(=O)c2cccc(C(F)(F)F)c2)C(=O)C(=O)NC2CC2)C(=O)N1` [Example 64, N-[(1S)-3-(cyclopropylamino)-1-[[(3S,5R)-5-methyl-2-oxo-pyrrolidin-3-yl]methyl]-2,3-dioxo-propyl]-5-(trifluoromethyl)-2-[[3-(trifluoromethyl)benzoyl]amino]benzamide], the IC50 came to 7.3 nM. Under `C[C@@H]1C[C@@H](C[C@H](NC(=O)c2cc(Cl)ccc2NC(=O)c2cccc(C(F)(F)F)c2)C(=O)C(=O)NC2CC2)C(=O)N1` [Example 66, 5-chloro-N-[(1S)-3-(cyclopropylamino)-1-[[(3S,5R)-5-methyl-2-oxo-pyrrolidin-3-yl]methyl]-2,3-dioxo-propyl]-2-[[3-(trifluoromethyl)benzoyl]amino]benzamide] stands 7 nM; under `C[C@@H]1C[C@@H](C[C@H](NC(=O)c2cc(F)cnc2NC(=O)c2cccc(C(F)(F)F)c2)C(=O)C(=O)NC2CC2)C(=O)N1` [Example 67, N-[(1S)-3-(cyclopropylamino)-1-[[(3S,5R)-5-methyl-2-oxo-pyrrolidin-3-yl]methyl]-2,3-dioxo-propyl]-5-fluoro-2-[[3-(trifluoromethyl)benzoyl]amino]pyridine-3-carboxamide], 7 nM; under `O=C(CCC(F)(F)F)Nc1ccc(Cl)cc1C(=O)N[C@@H](C[C@@H]1C[C@@H](C(F)(F)F)NC1=O)C(=O)C(=O)NC1CC1` [Example 68, 5-chloro-N-[(1S)-3-(cyclopropylamino)-2,3-dioxo-1-[[(3R,5S)-2-oxo-5-(trifluoromethyl)pyrrolidin-3-yl]methyl]propyl]-2-(4,4,4-trifluorobutanoylamino) benzamide], 7 nM. Under `C[C@@H]1C[C@@H](C[C@H](NC(=O)c2cc(Cl)ccc2NC(=O)C23CC(C(F)(F)F)(C2)C3)C(=O)C(=O)NC2CC2)C(=O)N1` [Example 69, N-[4-chloro-2-[[(1S)-3-(cyclopropylamino)-1-[[(3S,5R)-5-methyl-2-oxo-pyrrolidin-3-yl]methyl]-2,3-dioxo-propyl]carbamoyl]phenyl]-3-(trifluoromethyl)bicyclo[1.1.1] pentane-1-carboxamide] stands 6.9 nM; under `CNC(=O)C(=O)[C@H](C[C@@H]1C[C@@H](C)NC1=O)NC(=O)c1cc(C(F)F)ccc1NC(=O)c1cccc(C(F)(F)F)c1` [Example 70, 5-(difluoromethyl)-N-[(1S)-3-(methylamino)-1-[[(3S,5R)-5-methyl-2-oxo-pyrrolidin-3-yl]methyl]-2,3-dioxo-propyl]-2-[[3-(trifluoromethyl)benzoyl]amino]benzamide], 6.9 nM.

As for `O=C(NC1CC1)C(=O)[C@H](C[C@@H]1CCNC1=O)NC(=O)c1cc(Cl)ccc1NC(=O)c1cncc(C(F)(F)F)c1` [Example 71, N-[4-chloro-2-[[(1S)-3-(cyclopropylamino)-2,3-dioxo-1-[[(3S)-2-oxopyrrolidin-3-yl]methyl]propyl]carbamoyl]phenyl]-5-(trifluoromethyl)pyridine-3-carboxamide], the IC50 is 6.6 nM.

As to `CNC(=O)C(=O)[C@H](C[C@@H]1C[C@@H](C)NC1=O)NC(=O)c1cc(Cl)ccc1NC(=O)c1cc(C(F)(F)F)ccn1` [Example 72, N-[4-chloro-2-[[(1S)-3-(methylamino)-1-[[(3S,5R)-5-methyl-2-oxo-pyrrolidin-3-yl]methyl]-2,3-dioxo-propyl]carbamoyl]phenyl]-4-(trifluoromethyl)pyridine-2-carboxamide], the IC50 turned out to be 6.3 nM. To `C[C@@H]1C[C@@H](C[C@H](NC(=O)c2cc(Cl)ccc2NC(=O)c2cccc(F)c2)C(=O)C(=O)NC2CC2)C(=O)N1` [Example 73, 5-chloro-N-[(1S)-3-(cyclopropylamino)-1-[[(3S,5R)-5-methyl-2-oxo-pyrrolidin-3-yl]methyl]-2,3-dioxo-propyl]-2-[(3-fluorobenzoyl)amino] benzamide] belongs 6.2 nM; to `CNC(=O)C(=O)[C@H](C[C@@H]1C[C@@H](C)NC1=O)NC(=O)c1cc(Cl)ccc1NC(=O)c1ccnc(C(F)(F)F)c1` [Example 74], 6.2 nM; to `O=C(NC1CC1)C(=O)[C@H](C[C@@H]1CCNC1=O)NC(=O)c1cc(Cl)ccc1NC(=O)c1ccnc(C(F)(F)F)c1` [Example 75, N-[4-chloro-2-[[(1S)-3-(cyclopropylamino)-2,3-dioxo-1-[[(3S)-2-oxopyrrolidin-3-yl]methyl]propyl]carbamoyl]phenyl]-2-(trifluoromethyl)pyridine-4-carboxamide], 6 nM.

As for `CNC(=O)C(=O)[C@H](C[C@@H]1C[C@@H](C)NC1=O)NC(=O)c1cc(Cl)ccc1NC(=O)c1ccc(C(F)(F)F)nc1` [Example 76, N-[4-chloro-2-[[(1S)-3-(methylamino)-1-[[(3S,5R)-5-methyl-2-oxo-pyrrolidin-3-yl]methyl]-2,3-dioxo-propyl]carbamoyl]phenyl]-6-(trifluoromethyl)pyridine-3-carboxamide], the IC50 came out at 5.3 nM. Under `C[C@@H]1C[C@@H](C[C@H](NC(=O)c2cc(F)ccc2NC(=O)c2ccnc(C(F)(F)F)c2)C(=O)C(=O)NC2CC2)C(=O)N1` [Example 77, N-[2-[[(1S)-3-(cyclopropylamino)-1-[[(3S,5R)-5-methyl-2-oxo-pyrrolidin-3-yl]methyl]-2,3-dioxo-propyl]carbamoyl]-4-fluoro-phenyl]-2-(trifluoromethyl)pyridine-4-carboxamide] stands 5.3 nM; under `C[C@@H]1C[C@@H](C[C@H](NC(=O)c2cc(F)ccc2NC(=O)c2cccc(C(F)(F)F)c2)C(=O)C(=O)NC2CC2)C(=O)N1` [Example 78, N-[(1S)-3-(cyclopropylamino)-1-[[(3S,5R)-5-methyl-2-oxo-pyrrolidin-3-yl]methyl]-2,3-dioxo-propyl]-5-fluoro-2-[[3-(trifluoromethyl)benzoyl]amino]benzamide], 4.6 nM; under `O=C(NC1CC1)C(=O)[C@H](C[C@@H]1CCNC1=O)NC(=O)c1cc(Cl)c(F)cc1NC(=O)c1cncc(C(F)(F)F)c1` [Example 79], 11.3 nM. Under `C[C@@H]1C[C@@H](C[C@H](NC(=O)c2cc(Cl)cc(Cl)c2NC(=O)C23CC(F)(C2)C3)C(=O)C(=O)NC2CC2)C(=O)N1` [Example 80, N-[2,4-dichloro-6-[[(1S)-3-(cyclopropylamino)-1-[[(3S,5R)-5-methyl-2-oxo-pyrrolidin-3-yl]methyl]-2,3-dioxo-propyl]carbamoyl]phenyl]-3-fluoro-bicyclo[1.1.1]pentane-1-carboxamide] stands 21.6 nM; under `CNC(=O)C(=O)[C@H](C[C@@H]1CCNC1=O)NC(=O)c1cc(Cl)ccc1NC(=O)C1(C(F)(F)F)CC1` [Example 81, 5-chloro-N-[(1S)-3-(methylamino)-2,3-dioxo-1-[[(3S)-2-oxopyrrolidin-3-yl]methyl]propyl]-2-[[1-(trifluoromethyl)cyclopropane-carbonyl]amino]benzamide], 15.9 nM.

With `C[C@@H]1C[C@@H](C[C@H](NC(=O)c2cc(Cl)ccc2NC(=O)C2CC23CC3)C(=O)C(=O)NC2CC2)C(=O)N1` (stereo partly drawn) [Example 82, N-[4-chloro-2-[[(1S)-3-(cyclopropylamino)-1-[[(3S,5R)-5-methyl-2-oxo-pyrrolidin-3-yl]methyl]-2,3-dioxo-propyl]carbamoyl]phenyl] spiro[2.2]pentane-2-carboxamide], the IC50 is 10.8 nM. Under `C[C@@H]1C[C@@H](C[C@H](NC(=O)c2cc(Cl)ccc2NC(=O)C2CC23CC3)C(=O)C(=O)NC2CC2)C(=O)N1` (stereo partly drawn) [Example 83, N-[4-chloro-2-[[(1S)-3-(cyclopropylamino)-1-[[(3S,5R)-5-methyl-2-oxo-pyrrolidin-3-yl]methyl]-2,3-dioxo-propyl]carbamoyl]phenyl] spiro[2.2]pentane-2-carboxamide] stands 10.5 nM; under `C[C@@H]1C[C@@H](C[C@H](NC(=O)c2cc(Cl)ccc2NC(=O)C2CC2C(F)(F)F)C(=O)C(=O)NC2CC2)C(=O)N1` (stereo partly drawn) [Example 84, 5-chloro-N-[(1S)-3-(cyclopropylamino)-1-[[(3S,5R)-5-methyl-2-oxo-pyrrolidin-3-yl]methyl]-2,3-dioxo-propyl]-2-[[2-(trifluoromethyl)cyclopropane-carbonyl]amino]benzamide], 20.6 nM; under `C[C@@H]1C[C@@H](C[C@H](NC(=O)c2cc(Cl)ccc2NC(=O)C2CC2C(F)(F)F)C(=O)C(=O)NC2CC2)C(=O)N1` (stereo partly drawn) [Example 85, 5-chloro-N-[(1S)-3-(cyclopropylamino)-1-[[(3S,5R)-5-methyl-2-oxo-pyrrolidin-3-yl]methyl]-2,3-dioxo-propyl]-2-[[2-(trifluoromethyl)cyclopropane-carbonyl]amino]benzamide], 15.2 nM.

Take `C[C@@H]1C[C@@H](C[C@H](NC(=O)c2cc(Cl)ccc2NC(=O)c2cc(C(F)(F)F)ccn2)C(=O)C(=O)NC2CC2)C(=O)N1` [Example 86, N-[4-chloro-2-[[(1S)-3-(cyclopropylamino)-1-[[(3S,5R)-5-methyl-2-oxo-pyrrolidin-3-yl]methyl]-2,3-dioxo-propyl]carbamoyl]phenyl]-4-(trifluoromethyl)pyridine-2-carboxamide]: the IC50 is 6.8 nM. Regarding `C[C@@H]1C[C@@H](C[C@H](NC(=O)c2cc(Cl)c(F)cc2NC(=O)c2ccnc(C(F)(F)F)c2)C(=O)C(=O)NC2CC2)C(=O)N1` [Example 87], the IC50 was found to be 6.6 nM. `CNC(=O)C(=O)C(CC1C[C@@H](C(F)(F)F)NC1=O)NC(=O)c1cc(C#N)ccc1NC(=O)CCC(F)(F)F` (stereo partly drawn) [Example 88, 5-cyano-N-[3-(methylamino)-2,3-dioxo-1-[[(5S)-2-oxo-5-(trifluoromethyl)pyrrolidin-3-yl]methyl]propyl]-2-(4,4,4-trifluorobutanoylamino) benzamide]: the IC50 turned out to be 114 nM. Under `CC(C(=O)Nc1ccc(Cl)cc1C(=O)N[C@@H](C[C@@H]1C[C@@H](C)NC1=O)C(=O)C(=O)NC1CC1)c1cscn1` (stereo partly drawn) [Example 89, 5-chloro-N-[(1S)-3-(cyclopropylamino)-1-[[(3S,5R)-5-methyl-2-oxo-pyrrolidin-3-yl]methyl]-2,3-dioxo-propyl]-2-(2-thiazol-4-ylpropanoylamino)benzamide] stands 10.1 nM.
